In data set [1] the test system is heart rate increase elicited by isoproterenol in the pentobarbitalized dog. Briefly: β-adrenergic blocking activity in the pentobarbitalized dog. It counts as in vivo. Conditions: for ED50 / inhibition at 0.1 mg/kg / inhibition at 1 mg/kg: Canis lupus familiaris; for ED50 / Adrenergic Activity Dog β-blockade AED50: approximate intravenous dose causing 50% inhibition of isoproterenol-elicited heart rate increase; for ED50: read-out: Adrenergic Activity Dog β-blockade AED50; for inhibition at 0.1 mg/kg: 0.1 mg./kg. intravenous; for inhibition at 0.1 mg/kg / inhibition at 1 mg/kg: read-out: Actual percentage inhibition of heart rate increase above control level at the indicated dose; for inhibition at 1 mg/kg: 1.0 mg./kg. intravenous. As for the experimental part: The β-adrenergic blocking activity was determined in the pentobarbitalized dog as judged by the ability of the test compound to inhibit the elevation is heart rate elicited by a 0.5 mcg./kg. i.v. injection of isoproterenol.
^e AED50 = approximate intravenous dose required to cause 50%
inhibition of the heart rate increase elicited by isoproterenol in the
^h Actual percentage inhibition of heart rate increase above control
level observed at the indicated dose.

Data set [2] has as its system hind limb vasculature of the anesthetized dog. As to the kind of experiment: Vasodilator activity, dog-leg perfusion. It counts as in vivo. The following applies: approximate intraarterial dose causing 50% reduction in perfusion pressure in hind limb; for ED50: Canis lupus familiaris, read-out: Vasodilator Activity Dog-Leg Perfusion AED50. From the text:
(§1) Vasodilator activity was judged on the basis of observed reduction in perfusion pressure in the hind limb vasculature of the anesthetized dog determined according to the procedure described by Jandhyala et al., European J. Pharm. 17, 357 (1972), and also on the basis of percent reduction in perfusion pressure as measured in the isolated rabbit ear artery according to the method described by De LaLande et al., Aust. J. Exp. Biol. Med. Sci. 43, 639 (1965).
^c AED50 =approximate intraarterial dose required to cause a 50%
reduction in perfusion pressure in the hind limb of the anesthetized dog.

The test system of data set [3] is unanesthetized spontaneous hypertensive rat. As to the kind of experiment: Antihypertensive activity, single oral medication in the spontaneous hypertensive rat (SH Rat). It counts as in vivo. Conditions: for ED (40 mm Hg): Rattus norvegicus, single oral dose required to induce a 40 mm average reduction in systolic blood pressure, read-out: Antihypertensive Activity SH Rat AHD40 mg./kg. P.O.; for Actual reduction in blood pressure observed at the indicated dose: SH rat; for lower blood pressure: at 50 mg./kg. How it is done: Antihypertensive activity was determined on the basis of the observed reduction in systolic blood pressure measured according to the method of H. Kersten et al., J. Lab. and Clin. Med. 32, 1090 (1947) following a single oral medication in the unanesthetized spontaneous hypertensive rat described by Okamato et al., Japan Circulation J. 27, 282 (1963).
^a AHD40 = single oral dose required to induce a 40 mm average
reduction in systolic blood pressure in the unanesthetized spontaneous
^f Actual reduction in blood pressure (in mm Hg) observed at the […]

For data set [4], the system named is isolated rabbit ear artery. As to the kind of experiment: Vasodilator activity, isolated rabbit ear artery perfusion pressure. The following applies: Oryctolagus cuniculus, read-out: Rabbit Ear Artery vasodilation (percentage reduction in perfusion pressure); for inhibition at 20 µM: 2 × 10^-5 M; for inhibition at 50 µM: 5 × 10^-5 M.
Description: as §1
^d Vasodilation is expressed as the percentage reduction in perfusion
pressure from the control level at the indicated molar dose.

For data set [5], the system named is unanesthetized trained renal hypertensive dog. Briefly: Antihypertensive activity, repeated oral medication in the renal hypertensive dog. The following applies: for minimal effective dose: Canis lupus familiaris, minimum repeated oral daily dose for sustained lowering of blood pressure of 10% or greater, tid, read-out: Antihypertensive Activity Renal Hypertensive Dog MED10 mg./kg. tid. It counts as in vivo. The text has this: Antihypertensive activity was also judged on the basis of sustained reduction of blood pressure observed in the unanesthetized trained renal hypertensive dog following repeated oral medication according to the procedure described by Lape et al., Arch. Int. Pharmacodyn. 160, 342 (1966).
^b MED10 = minimum repeated oral daily dose required to effect a
sustained lowering of blood pressure of 10% or greater in the
unanesthetized trained renal hypertensive dog.
^g Actual precentage reduction in blood pressure observed at the […]

The subject of data set [6] is ouabain-induced arrhythmia in dogs. Briefly: Ouabain-induced arrhythmia conversion.
Description: The latter was determined in vivo and efficacy was judged on the ability of the test compound to convert to normal rhythm the arrhythmia induced by barium ion or ouabain intoxication.
Adult mongrel dogs of either sex, after fasting for 16 to 20 hours, were anesthetized with 35 mg./kg. Na-pentobarbital i.v. and tied supine on an operating table. A patent airway was provided by inserting an endotracheal cannula, and the animal respired spontaneously. A femoral vein was double cannulated with one cannula for injection and the other as a site for ouabain infusion. The ipsilateral femoral artery was cannulated for blood pressure measurement. Na-pentobarbital supplements were given i.v. as needed.
Statham P23A blood pressure transducers were used to measure blood pressure, and electrocardiograms (lead II or V1) were taken with monopolar pin electrodes. Both parameters were printed out on a Grass polygraph. Each dog was given 36 mcg./kg. ouabain i.v. over 1 minute (the solution contained 50 mcg./ml. ouabain in isotonic saline) followed by a constant ouabain infusion (0.6 mcg./kg./min.) starting 5 minutes later. The infusion solution was prepared so that the appropriate dose per minute was delivered in 0.5 ml. […]
All ECG interval and duration measurements were made on lead II with a chart speed of 100 mm./sec. […] Blood pressure was measured using a sensitivity of 10 mm. […]

Structures can show the parent of a compound that is named as a salt. Where two headings read alike, the source gives them in different places. A value given as a limit tells only on which side of the number the result lay.

Take `COc1ccc(CCC(C)NCC(O)c2ccc(O)c(SC)c2)cc1` (single isomer, unassigned) [Example 13A]: the ED50 is above 0.1 mg/kg in data set [1] (iv) and 0.5 mg/kg in data set [2]. The inhibition at 0.1 mg/kg in data set [1] stood at 14%.
On to `COc1ccc(CCC(C)NCC(O)c2ccc(O)c(SC)c2)cc1` (single isomer, unassigned) [Example 13B], for which the “Adrenergic Activity Dog β-blockade AED50” value in data set [1] came out at 0.1 mg/kg. For the same compound, the “Vasodilator Activity Dog-Leg Perfusion AED50” value in data set [2] is 0.5 mg/kg.
Take `CSc1cc(C(O)CNC(C)CCc2ccc(O)cc2)ccc1O` (single isomer, unassigned) [Example 40B, 4-hydroxy-α-<{[3-(4-hydroxyphenyl)-1-methylpropyl]amino}-methyl>-3-(methylthio)benzenemethanol cyclohexanesulfamate]: the ED50 in data set [1] (iv) is 0.1 mg/kg. In addition, the ED (40 mm Hg) in data set [3] is above 50 mg/kg. The “Actual reduction in blood pressure observed at the indicated dose” value (shortened to “Actual reduction”) in data set [3] (50.0 mg./kg. P.O.) was -9 mm Hg.
`COc1ccc(CC(C)NCC(O)c2ccc(O)c(SC)c2)cc1` (stereo not drawn) [Example 3, 4-hydroxy-α-<{[2-(4-methoxyphenyl)-1-methylethyl]amino}methyl>-3-(methylthio)benzenemethanol acetate salt]: the inhibition at 20 µM in data set [4] is 56%. The results for the ED50 in data set [1] and in data set [2] were 0.1 mg/kg and 0.5 mg/kg, respectively. Besides, the ED (40 mm Hg) in data set [3] stood at 20 mg/kg.
For the compound `COc1ccc(CCC(C)NCC(O)c2ccc(O)c(SC)c2)cc1` (stereo not drawn) [Example 5, 4-hydroxy-α-<{[3-(4-methoxyphenyl)-1-methylpropyl]amino}methyl>-3-(methylthio)benzenemethanol acetate salt], the inhibition at 100 µM in data set [4] (1 × 10^-4 M) was found to be 55%. Moreover, the results for the ED50 in data set [1] (iv) and in data set [2] were 0.1 mg/kg and 0.5 mg/kg, respectively. The minimal effective dose in data set [5] was above 2.5 mg/kg. The “Actual percentage reduction in blood pressure observed at the indicated dose” value in data set [5] (renal hypertensive dog, 2.5 mg./kg. tid) is recorded as 0%. Further, the ED (40 mm Hg) in data set [3] was found to be 15 mg/kg. This compound came in with a lowers blood pressure in data set [3] (at a dose of 15 mg./kg.) of 40 mm. Further, the “potency relative to the reference compounds” value in data set [3] (at less than one-third the dose of Reference Compounds I and II) is “twice as potent”.
Regarding `COc1ccc(CCC(C)NCC(O)c2ccc(O)c(SC)c2)cc1` (stereo not drawn) [Example 12B, 4-hydroxy-α-<{[3-(4-methoxyphenyl)-1-methylpropyl]amino}methyl>3-(methylthio)benzenemethanol acetate salt], the inhibition at 0.1 mg/kg in data set [1] is 45%. Moreover, the “Adrenergic Activity Dog β-blockade AED50” value in data set [1] (acetate salt) was above 0.1 mg/kg.
On to `COc1ccc(CCC(C)NCC(O)c2ccc(O)c(SC)c2)cc1` (stereo not drawn) [Example 12C, 4-hydroxy-α<{[3-(4-methoxyphenyl)-1-methylpropyl]amino}methyl>-3-(methylthio)benzenemethanol acetate salt], for which, in data set [1] (acetate salt), the “Adrenergic Activity Dog β-blockade AED50” value was around 0.10 mg/kg.
As for `COc1ccc(CCC(C)NCC(O)c2ccc(OC(=O)c3ccccc3)c(SC)c2)cc1` (stereo not drawn) [Example 15A, 4-hydroxy-α-<{[3-(4-methoxyphenyl)-1-methylpropyl]amino}methyl>-3-(methylthio)benzenemethanol 4-benzoate acetate salt], the ED (40 mm Hg) in data set [3] is above 50 mg/kg. Further, the “Actual reduction” value in data set [3] (50.0 mg./kg. P.O.) is recorded as -10 mm Hg.
Consider `CC(=O)O.CSc1cc(C(O)CNC(C)(C)Cc2ccccc2)ccc1O` (stereo not drawn) [Example 20, α-{[(1,1-dimethyl-2-phenylethyl)amino]methyl}-4-hydroxy-3-(methylthio)benzenemethanol acetate salt], for which the inhibition at 10 µM in data set [4] (1 × 10^-5 M) was found to be 71%. Also, in data set [1], the inhibition at 1 mg/kg was 56% and the ED50 is below 1 mg/kg. The ED50 in data set [2] came out at 0.5 mg/kg. For the same compound, the ED (40 mm Hg) in data set [3] is around 50 mg/kg.
On to `CSc1cc(C(O)CNC(C)Cc2ccccc2)ccc1O` (stereo not drawn) [Example 22, 4-hydroxy-α-{[(1-methyl-3-phenylethyl)amino]methyl}-3-(methylthio)benzenemethanol acetate salt], for which, in data set [4], the inhibition at 20 µM came out at 33%. In data set [1], the inhibition at 1 mg/kg came to 60% and the ED50 is below 1 mg/kg. Besides, in data set [2], the ED50 was found to be 0.5 mg/kg. The ED (40 mm Hg) in data set [3] came out at 35 mg/kg.
On to `COc1ccc(CC(C)NC(C)C(O)c2ccc(O)c(SC)c2)cc1` (stereo not drawn) [Example 24, 4-hydroxy-α-<{[2-(4-methoxyphenyl)-1-methylethyl]amino}ethyl>-3-(methylthio)benzenemethanol acetate salt], for which the ED (40 mm Hg) in data set [3] is above 20 mg/kg. The “Actual reduction” value in data set [3] (20.0 mg./kg. P.O.) was -23 mm Hg.
For the compound `CC(=O)O.CSc1cc(C(O)CNC(C)(C)CCc2ccccc2)ccc1O` (stereo not drawn) [Example 28, α-{[(1,1-dimethyl-3-phenylpropyl)amino]methyl}-4-hydroxy-3-(methylthio)benzenemethanol acetate salt], in data set [4], the inhibition at 50 µM was 70%. In addition, the ED50 is below 1 mg/kg in data set [1] (iv) and 0.5 mg/kg in data set [2]. For the same compound, the inhibition at 1 mg/kg in data set [1] was 100%. Also, the ED (40 mm Hg) in data set [3] was around 10 mg/kg.
As for `COc1ccc(CCC(C)(C)NCC(O)c2ccc(O)c(SC)c2)cc1` (stereo not drawn) [Example 30, α-<{[1,1-dimethyl-3-(4-methoxyphenyl)propyl]amino}methyl>-4-hydroxy-3-(methylthio)benzenemethanol acetate salt], in data set [4] (9 × 10^-5 M), the inhibition at 90 µM amounted to 50%. For the same compound, the results for the ED50 in data set [1] (iv) and in data set [2] were below 1 mg/kg and 0.5 mg/kg, respectively. Moreover, the inhibition at 1 mg/kg in data set [1] worked out at 72%. Besides, the minimal effective dose in data set [5] turned out to be 0.5 mg/kg. Also, in data set [3], the ED (40 mm Hg) turned out to be 20 mg/kg.
Consider `CSc1cc(C(O)CNC(C)CCc2ccccc2)ccc1O` (stereo not drawn) [Example 32, 4-hydroxy-α-{[(1-methyl-3-phenylpropyl)amino]methyl}-3-methylthio)benzenemethanol acetate salt], for which the inhibition at 50 µM in data set [4] was 81%. Besides, the values for the ED50 in data set [1] (iv) and in data set [2] were 0.1 mg/kg and 0.5 mg/kg, respectively. For the same compound, the ED (40 mm Hg) in data set [3] was found to be 5 mg/kg.
Consider `COc1ccc(CCCC(C)NCC(O)c2ccc(O)c(SC)c2)cc1` (stereo not drawn) [Example 36, 4-hydroxy-α-<{[4-(4-methoxyphenyl)1-methylbutyl]amino}methyl>-3-(methylthio)benzenemethanol acetate salt], for which the ED (40 mm Hg) in data set [3] is above 50 mg/kg. Moreover, in data set [3] (50.0 mg./kg. P.O.), the “Actual reduction” value was -17 mm Hg.
As for `COc1cc(CCNCC(O)c2ccc(O)c(SC)c2)cc(OC)c1OC` (stereo not drawn) [Example 51, 4-hydroxy-3-(methylthio)-α-<{[2-(3,4,5-trimethoxyphenyl)ethylamino}methyl>benzenemethanol hydrochloride], the “toxic dose in the ouabain test” value in data set [6] (anesthetized dog) was 2.5×10^-5 Mg/kg. Besides, in data set [6] (below 2.5×10^-5 Mg/kg.), the “activity in the ouabain test” value was “inactive”.
As to `COc1ccc(CCC(C)NCC(O)c2ccc(SC)c(O)c2)cc1` (stereo not drawn) [Ref Cpd I, 3-hydroxy-α-<{[3-(4-methoxyphenyl)-1-methylpropyl]amino}methyl>-4-(methylthio)benzenemethanol acetate salt, reference compound], in data set [3], the ED (40 mm Hg) was above 50 mg/kg and the lower blood pressure is 20 mm. Further, in data set [3] (50.0 mg./kg. P.O.), the “Actual reduction” value is given as -20 mm Hg.
Turning to `COc1ccc(CCC(C)NCC(O)c2ccc(OC)c(SC)c2)cc1` (stereo not drawn) [Ref Cpd II, 4-methoxy-α-<{[3-(4-methoxyphenyl)-1-methylpropyl]amino}methyl>-3-(methylthio)benzenemethanol hydrochloride, reference compound], the ED50 in data set [1] (iv) was 0.07 mg/kg. For the same compound, in data set [3], the ED (40 mm Hg) was above 50 mg/kg and the lower blood pressure came out at 24 mm. The “Actual reduction” value in data set [3] (50.0 mg./kg. P.O.) is reported as -24 mm Hg.

Source of the values: US4695589A, “Alpha-(aminoalkyl-4-hydroxy-3-(alkylthio)benzenemethanols” (Sterling Drug Inc., priority 1983, dated 1987).
